The values below come from article PMC6928947, “Benzo[b]tellurophenes as a Potential Histone H3 Lysine 9 Demethylase (KDM4) Inhibitor” (International Journal of Molecular Sciences, 2019).

The assay has as its target T1, KDM4A (Homo sapiens, UniProt O75164).
T1 sequence (O75164 2-1064): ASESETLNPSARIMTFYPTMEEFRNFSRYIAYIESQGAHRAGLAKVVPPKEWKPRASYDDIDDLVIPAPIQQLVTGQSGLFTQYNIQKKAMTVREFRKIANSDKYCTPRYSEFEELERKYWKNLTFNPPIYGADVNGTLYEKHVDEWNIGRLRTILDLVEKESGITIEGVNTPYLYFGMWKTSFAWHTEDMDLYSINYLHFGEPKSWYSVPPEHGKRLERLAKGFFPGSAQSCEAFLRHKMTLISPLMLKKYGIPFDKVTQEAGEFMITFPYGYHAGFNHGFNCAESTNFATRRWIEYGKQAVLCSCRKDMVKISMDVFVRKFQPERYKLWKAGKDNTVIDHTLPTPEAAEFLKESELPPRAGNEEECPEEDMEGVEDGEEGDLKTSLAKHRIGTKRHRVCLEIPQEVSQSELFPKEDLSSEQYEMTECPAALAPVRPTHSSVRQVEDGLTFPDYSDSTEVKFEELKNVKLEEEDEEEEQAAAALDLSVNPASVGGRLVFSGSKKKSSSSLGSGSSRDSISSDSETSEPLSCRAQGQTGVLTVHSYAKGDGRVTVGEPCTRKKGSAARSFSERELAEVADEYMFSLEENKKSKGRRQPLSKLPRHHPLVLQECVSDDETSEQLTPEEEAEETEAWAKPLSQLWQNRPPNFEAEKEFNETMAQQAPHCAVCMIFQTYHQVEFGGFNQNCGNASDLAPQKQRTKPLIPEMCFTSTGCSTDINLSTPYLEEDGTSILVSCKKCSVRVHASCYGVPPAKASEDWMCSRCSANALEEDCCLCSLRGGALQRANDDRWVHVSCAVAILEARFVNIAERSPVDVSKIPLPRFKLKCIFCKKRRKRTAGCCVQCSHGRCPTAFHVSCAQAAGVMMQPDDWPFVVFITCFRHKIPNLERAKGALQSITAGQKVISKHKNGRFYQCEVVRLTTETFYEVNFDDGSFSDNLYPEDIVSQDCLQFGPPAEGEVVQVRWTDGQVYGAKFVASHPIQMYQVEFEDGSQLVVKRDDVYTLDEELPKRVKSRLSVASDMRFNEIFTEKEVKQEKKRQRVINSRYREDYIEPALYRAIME
In words: FDH-coupled demethylase assay, recombinant KDM4A with H3K9me3 peptide (Cayman kit […]). It is filed as biochemical.

One may read the IC50 as the midpoint of a concentration-inhibition curve. For the molecule `CC(C)(C)OC(=O)NCc1cc2ccccc2[te]1` [1c, tert-Butyl benzo[b]tellurophen-2-ylmethylcarbamate], the concentration for half-maximal inhibition (IC50) was 30.2 ± 4.6 µM.
